Results published in PubChem BioAssay (NCI).
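A five-concentration, 48-hour dose response in 96-well plates underlies each endpoint, interpolated linearly between surrounding concentrations. Abbreviation: GI50, concentration required for 50% inhibition of growth. TGI: total growth inhibition.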

Experiments:
Experiment in all cases: NCI-60 cell line screen, 48 h
SK-MEL-2 melanoma = tested on: SK-MEL-2 melanoma
HT29 colon = tested on: HT29 colon
HOP-62 NSCLC = tested on: HOP-62 NSCLC
COLO 205 colon = tested on: COLO 205 colon
SR leukemia = tested on: SR leukemia
ACHN renal = tested on: ACHN renal
SN12C renal = tested on: SN12C renal
786-0 renal = tested on: 786-0 renal
SF-295 CNS = tested on: SF-295 CNS
OVCAR-8 ovarian = tested on: OVCAR-8 ovarian
HCC-2998 colon = tested on: HCC-2998 colon

SMILES | TGI (SK-MEL-2 melanoma) | TGI (HT29 colon) | TGI (HOP-62 NSCLC) | TGI (COLO 205 colon) | TGI (SR leukemia) | TGI (ACHN renal) | TGI (SN12C renal) | TGI (786-0 renal) | TGI (SF-295 CNS) | TGI (OVCAR-8 ovarian) | TGI (HCC-2998 colon) | GI50 (HOP-62 NSCLC) | GI50 (SN12C renal)
CCCCCN1C(=O)C(Cc2ccccc2)N=C(c2ccc(O)cc2)c2cc(Cl)ccc21 (centres undefined) | 34.4 µM | 25.6 µM | 52.8 µM | 10.1 µM | 15.3 µM | 25.9 µM | > 39.6 µM | 27.3 µM | 20.7 µM | 25.8 µM | – | – | –
Cn1c2ncccc2n2c(=O)cc(O)cc12 | > 100 µM | > 100 µM | > 100 µM | > 100 µM | > 100 µM | > 100 µM | – | > 100 µM | > 100 µM | > 100 µM | > 100 µM | – | –
CCC1=CC(OCc2ccccc2)C(CCN(Cc2ccccc2)C(=O)OCc2ccccc2)C1 (centres undefined) | 42.1 µM | 37.6 µM | 37.1 µM | 45.6 µM | 56.4 µM | 30.9 µM | – | 40.1 µM | 35.3 µM | 32.8 µM | 35.8 µM | – | –
Nc1c(F)c(F)c2c(c1F)N(CCCCCl)c1ccccc1S2 | > 100 µM | > 100 µM | > 100 µM | > 100 µM | > 100 µM | > 100 µM | > 100 µM | > 100 µM | > 100 µM | – | > 100 µM | – | –
O=c1cccccc1[O-].O=c1cccccc1[O-].O=c1cccccc1[O-].[Nd+3] | 97.3 µM | > 100 µM | 95.3 µM | – | – | > 100 µM | > 100 µM | > 100 µM | > 100 µM | 90.7 µM | > 100 µM | 32 µM | 35.6 µM
COc1ccc(/C=C2/SC(=Nc3ccccc3)N(NC(=O)Cc3ccccc3)C2=O)cc1 | > 100 µM | > 100 µM | > 100 µM | > 100 µM | – | > 100 µM | > 100 µM | > 100 µM | > 100 µM | > 100 µM | > 100 µM | – | –
CC(CC(=O)N1C2CC3CCC2(CS1(=O)=O)C3(C)C)[Si](C)(C)C (centres undefined) | – | > 100 µM | > 100 µM | > 100 µM | > 100 µM | > 100 µM | > 100 µM | > 100 µM | > 100 µM | > 100 µM | > 100 µM | – | –
CC(=O)Oc1ccc2c(c1)[nH]c1c3ccc(OC(C)=O)cc3oc(=O)c21 | – | > 100 µM | > 100 µM | > 100 µM | 71.7 µM | 78.3 µM | > 100 µM | > 100 µM | > 100 µM | > 100 µM | 67.7 µM | – | –
C1CSCCSCCSCCSCCS1 | > 100 µM | > 100 µM | > 100 µM | > 100 µM | – | > 100 µM | > 100 µM | > 100 µM | > 100 µM | > 100 µM | > 100 µM | – | –
CN1CCCS/C1=C1/SC(=S)N(c2ccccc2)C1=O | > 100 µM | > 100 µM | > 100 µM | > 100 µM | > 100 µM | > 100 µM | > 100 µM | > 100 µM | > 100 µM | > 100 µM | – | – | –
CN1N=C(c2ccncc2)OC1c1cccc(F)c1 (centres undefined) | > 100 µM | > 100 µM | > 100 µM | > 100 µM | – | > 100 µM | > 100 µM | > 100 µM | > 100 µM | > 100 µM | > 100 µM | – | –
N#CCCC(C#N)(C#N)CCC#N | – | > 100 µM | > 100 µM | > 100 µM | > 100 µM | > 100 µM | > 100 µM | > 100 µM | > 100 µM | > 100 µM | > 100 µM | – | –
CN1CCS(=O)(=O)NC(Cc2ccccc2)C(=O)N2CCCC2C1=O (centres undefined) | > 100 µM | > 100 µM | > 100 µM | > 100 µM | – | > 100 µM | > 100 µM | > 100 µM | > 100 µM | > 100 µM | > 100 µM | – | –
O=C1CC(n2ccnc2)c2c(Cl)sc(Cl)c21 (centres undefined) | 54.9 µM | 43.6 µM | 51.9 µM | 33.8 µM | > 19.8 µM | 33.2 µM | 37.3 µM | > 37.9 µM | > 78.1 µM | 27.8 µM | – | – | –
N#Cc1c(C#N)c(SSc2c(C#N)c(C#N)c(N)n2-c2cccc3ccccc23)n(-c2cccc3ccccc23)c1N | 34.8 µM | 39.2 µM | 49.9 µM | 10.6 µM | – | 13.1 µM | 34.8 µM | 4.26 µM | 38.9 µM | > 25.3 µM | 85.8 µM | – | –
COP12(OC)NC(=O)OC1(C(F)(F)F)c1ccccc1O2 (centres undefined) | > 100 µM | > 100 µM | – | – | – | > 100 µM | > 100 µM | > 100 µM | > 100 µM | > 100 µM | – | – | –
CCOC(=O)c1ccc(N=C2Sc3nc4ccccc4n3C2=Nc2ccc(C(=O)OCC)cc2)cc1 | 91.5 µM | > 100 µM | 46.5 µM | > 100 µM | – | 57.2 µM | > 100 µM | 24.5 µM | 37.3 µM | 89.7 µM | > 100 µM | – | –
O=C1CCC(=O)c2ccccc2N1 | > 100 µM | > 100 µM | > 100 µM | > 100 µM | – | > 100 µM | > 100 µM | > 100 µM | > 100 µM | > 100 µM | > 100 µM | – | –
Cc1cn(C2CC(O)C(Cn3nncc3Cn3cnc4c(N)ncnc43)O2)c(=O)[nH]c1=O (centres undefined) | > 100 µM | – | > 100 µM | > 100 µM | > 100 µM | > 100 µM | > 100 µM | > 100 µM | > 100 µM | > 100 µM | > 100 µM | – | –
COc1nc(=O)[nH]c2c1C(c1ccc([N+](=O)[O-])cc1)c1c(OC)nc(=O)[nH]c1O2 | > 100 µM | > 100 µM | > 100 µM | > 100 µM | – | > 100 µM | > 100 µM | > 100 µM | > 100 µM | > 100 µM | – | – | –
CN1C(=O)C(=Cc2ccc(Br)cc2)C(=O)N(C)C1=O | > 100 µM | – | > 100 µM | > 100 µM | – | > 100 µM | – | > 100 µM | > 100 µM | – | > 100 µM | – | –
c1cc2c(cc1C1OCC3C(c4ccc5c(c4)OCO5)OCC13)OCO2 (centres undefined) | > 100 µM | > 100 µM | > 100 µM | > 100 µM | – | > 100 µM | > 100 µM | > 100 µM | > 100 µM | > 100 µM | > 100 µM | – | –
